Data reported in PMC8217813, “Bridging Computational Vaccinology and Vaccine Development Through Systematic Identification, Characterization, and Downselection of Conserved and Variable Circumsporozoite Protein CD4 T Cell Epitopes From Diverse Plasmodium falciparum Strains” (Frontiers in Immunology, 2021).
Peptide text beside a SMILES is read from it.

Tests used:
HLA-DRB1*1301 = HLA-DRB1*1301 (Homo sapiens, UniProt P01903+P01911, A100E/A169T/K41T/L162R/M171V/P40S/Q125H/Q178H/Q39Y/Q99D/R42S/S66N/T262R/W38E/Y61H); assay: In vitro class II HLA binding competition assay; details: competition with fluorescent-labeled reference peptide, class II HLA monomers, 24-hours, test peptide 100,000 nM to 100 nM, time-resolved fluorescence
In short: (§1)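 Test peptides (final 100,000 nM to 100 nM, in DMSO) competed with a fluorescent high-binding reference peptide for limiting soluble class II HLA monomers in aqueous buffer over 24 h. Complexes were captured on anti-HLA-DR plates and read by europium time-resolved fluorescence; IC50 came from percent inhibition across the titration.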

HLA-DRB1*0401 = molecular target: T1, HLA-DRB1*0401 (Homo sapiens, UniProt P01903+P01911, A100K/A169T/F76Y/I96L/K127E/L162R/M171V/N62H/P40V/Q125Y/R42H/S133A/S149N/S66Y/V115G/V209L/W38E); assay: In vitro class II HLA binding competition assay; details: competition with fluorescent-labeled reference peptide, class II HLA monomers, 24-hours, test peptide 100,000 nM to 100 nM, time-resolved fluorescence; read-out: IC50, DRB1*0401
T1 construct: purchased
In short: as §1

HLA-DRB1*1101 = molecular target: T2, HLA-DRB1*1101 (Homo sapiens, UniProt P01903+P01911, A100R/A169T/A87E/I96F/K41T/L162R/M171V/P40S/Q125H/Q178H/Q39Y/Q99D/R42S/S66Y/T262R/V115G/W38E); assay: In vitro class II HLA binding competition assay; details: competition with fluorescent-labeled reference peptide, class II HLA monomers, 24-hours, test peptide 100,000 nM to 100 nM, time-resolved fluorescence
T2 construct: purchased
In short: as §1

HLA-DRB1*1501 = molecular target: T3, HLA-DRB1*1501 (Homo sapiens, UniProt P01903+P01911); assay: In vitro class II HLA binding competition assay; details: competition with fluorescent-labeled reference peptide, class II HLA monomers, 24-hours, test peptide 100,000 nM to 100 nM, time-resolved fluorescence; read-out: IC50, DRB1*1501
T3 construct: purchased
In short: as §1

HLA-DRB1*0101 = molecular target: T4, HLA-DRB1*0101 (Homo sapiens, UniProt P01903+P01911, A100R/D57E/F55L/F60I/F76Y/I96L/L162R/M171V/P40L/Q125E/R42F/V115G/Y59C); assay: In vitro class II HLA binding competition assay; details: competition with fluorescent-labeled reference peptide, class II HLA monomers, 24-hours, test peptide 100,000 nM to 100 nM, time-resolved fluorescence
T4 construct: purchased
In short: as §1

HLA-DRB1*0301 = HLA-DRB1*0301 (Homo sapiens, UniProt P01903+P01911, A100K/A102G/A103R/A169T/F55Y/I96L/K41T/L162R/M171V/P40S/Q125H/Q178H/Q39Y/R42S/S66N/T106N/T262R/W38E/Y61H); assay: In vitro class II HLA binding competition assay; details: competition with fluorescent-labeled reference peptide, class II HLA monomers, 24-hours, test peptide 100,000 nM to 100 nM, time-resolved fluorescence
In short: as §1

HLA-DRB1*0701 = HLA-DRB1*0701 (Homo sapiens, UniProt P01903+P01911, A100R/A102G/A103Q/D57E/D86V/E43K/F76Y/K127E/L162R/M171V/P40G/Q125H/Q99D/R33Q/R42Y/R54Q/S133A/S66F/T210M/V115G/Y107V/Y59L/Y89S); assay: In vitro class II HLA binding competition assay; details: competition with fluorescent-labeled reference peptide, class II HLA monomers, 24-hours, test peptide 100,000 nM to 100 nM, time-resolved fluorescence; read-out: IC50, DRB1*0701
In short: as §1

[1] = system: CD4 T cells co-cultured with autologous DCs from PBMCs; format: cell-based, human; details: positive = Stimulation Index ≥1.5-fold above baseline, 5 µg/mL peptide
HLA B*0702 = molecular target: T5, HLA B*0702 (Homo sapiens, UniProt P01889); assay: biochemical; format: binding
T5 construct: Pure Protein, LLC (ran the assay)

HLA A*0201 = molecular target: T6, HLA A*0201 (Homo sapiens, UniProt P04439, D140Y/D185E/D98H/E176V/E277Q/G131W/G231S/I119V/I121R/I166T/I218V/L300P/L318F/N151K/N90K/P208A/P217A/Q86G/Q94H/R138H/R169H/T345S); assay: biochemical; format: binding
T6 construct: Pure Protein, LLC (ran the assay)

HLA A*2402 = molecular target: T7, HLA A*2402 (Homo sapiens, UniProt P04439, D101N/D140Y/D185E/E176V/E190D/F33S/G103R/G107R/I119L/I121M/I306V/K335N/L105A/L180Q/L300P/N151K/N90K/Q86E/Q94H/R106L/R138H/R89G/T104I/T345S/V100E/W191G/Y123F); assay: In vitro class I HLA binding competition assay (fluorescence polarization); details: allele A2402; cell-free competition with fluorescently labeled control peptide, fluorescence polarization at 72 hours
T7 construct: Pure Protein, LLC (ran the assay)
Experimental: The cell-free class I HLA binding assay in use at Pure Protein, LLC allows for in vitro quantification of peptide-HLA binding affinity in a competition format. In this assay, a fluorescently labeled, high binding, control peptide is loaded onto 384-well ½-area plates along with unlabeled experimental peptides. To remove endogenous peptides and render the HLA A and B molecules receptive to binding, HLA is heated at 53°C for 15 minutes and immediately added to the assay. The mixture is then allowed to stand for three days. […] Binding of experimental peptides is expressed as the percent inhibition of the labeled control peptide (experimental fluorescence / control fluorescence, multiplied by 100). The percent inhibition values for each experimental peptide (across a range of molar concentrations) are used to calculate the concentration which inhibits 50% of the labeled control peptide’s specific binding. This value is referred to as the peptide’s IC50.

In the case of `CC[C@H](C)[C@H](NC(=O)[C@H](CO)NC(=O)[C@H](CO)NC(=O)[C@H](CC(N)=O)NC(=O)[C@@H](NC(=O)[C@@H](NC(=O)[C@H](CC(N)=O)NC(=O)[C@H](Cc1ccccc1)NC(=O)[C@@H](NC(=O)[C@H](CO)NC(=O)[C@H](CO)NC(=O)[C@@H](N)CCCCN)C(C)C)C(C)C)C(C)C)C(=O)NCC(=O)N[C@@H](CC(C)C)C(=O)N[C@H](C(=O)N[C@@H](CCSC)C(=O)N[C@H](C(=O)N[C@@H](CC(C)C)C(=O)N[C@@H](CO)C(N)=O)C(C)C)[C@@H](C)CC` [Cluster C4] (H-KSSVFNVVNSSIGLIMVLS-NH2), the IC50 (HLA-DRB1*1301) is reported as 1.2 µM, the IC50 (HLA-DRB1*0401) is reported as 1.69 µM and the IC50 (HLA-DRB1*1101) is reported as 1.04 µM. The IC50 (HLA-DRB1*1501) was 12.3 µM, the IC50 (HLA-DRB1*0101) was 0.526 µM and the IC50 (HLA-DRB1*0301) was 1.1 µM. For the same compound, the IC50 (HLA-DRB1*0701) was 2.07 µM, the “Percentage of donors demonstrating IFN-γ responses, DR1” value ([1]; DR1 donors N=5, ICCS after 14-day co-culture) was 20% and the “Percentage of donors demonstrating IL-2 responses, DR1” value ([1]; DR1 donors N=5, ICCS) was 0%. The “Percentage of donors demonstrating IL-4 responses, DR1” value ([1]; DR1 donors N=5, ICCS) was 0%, the “Percentage of donors demonstrating IL-10 responses, DR1” value ([1]; DR1 donors N=5, ICCS) was 20% and the “Percentage of donors demonstrating TNF-α responses, DR1” value ([1]; DR1 donors N=5, ICCS) was 0%. For the same compound, the “Percentage of donors demonstrating IFN-γ responses, DR3” value ([1]; DR3 donors N=6, ICCS after 14-day co-culture) was 17%, the “Percentage of donors demonstrating IL-2 responses, DR3” value ([1]; DR3 donors N=6, ICCS) was 0% and the “Percentage of donors demonstrating IL-4 responses, DR3” value ([1]; DR3 donors N=6, ICCS) was 0%. The “Percentage of donors demonstrating IL-10 responses, DR3” value ([1]; DR3 donors N=6, ICCS) was 0%, the “Percentage of donors demonstrating TNF-α responses, DR3” value ([1]; DR3 donors N=6, ICCS) was 0% and the “Percentage of donors demonstrating IFN-γ responses, DR4” value ([1]; DR4 donors N=10, ICCS after 14-day co-culture) was 30%. The “Percentage of donors demonstrating IL-2 responses, DR4” value ([1]; DR4 donors N=10, ICCS) was 0%, the “Percentage of donors demonstrating IL-4 responses, DR4” value ([1]; DR4 donors N=10, ICCS) was 40% and the “Percentage of donors demonstrating IL-10 responses, DR4” value ([1]; DR4 donors N=10, ICCS) was 20%. The “Percentage of donors demonstrating TNF-α responses, DR4” value ([1]; DR4 donors N=10, ICCS) was 10%, the “Percentage of donors demonstrating IFN-γ responses, DR7” value ([1]; DR7 donors N=4, ICCS after 14-day co-culture) was 0% and the “Percentage of donors demonstrating IL-2 responses, DR7” value ([1]; DR7 donors N=4, ICCS) was 0%. The “Percentage of donors demonstrating IL-4 responses, DR7” value ([1]; DR7 donors N=4, ICCS) was 25%, the “Percentage of donors demonstrating IL-10 responses, DR7” value ([1]; DR7 donors N=4, ICCS) was 0% and the “Percentage of donors demonstrating TNF-α responses, DR7” value ([1]; DR7 donors N=4, ICCS) was 0%. For the same compound, the “Percentage of donors demonstrating IFN-γ responses, DR8” value ([1]; DR8 donors N=4, ICCS after 14-day co-culture) was 25%, the “Percentage of donors demonstrating IL-2 responses, DR8” value ([1]; DR8 donors N=4, ICCS) was 25% and the “Percentage of donors demonstrating IL-4 responses, DR8” value ([1]; DR8 donors N=4, ICCS) was 25%. For the same compound, the “Percentage of donors demonstrating IL-10 responses, DR8” value ([1]; DR8 donors N=4, ICCS) was 25%, the “Percentage of donors demonstrating TNF-α responses, DR8” value ([1]; DR8 donors N=4, ICCS) was 25% and the “Percentage of donors demonstrating IFN-γ responses, DR9” value ([1]; DR9 donors N=4, ICCS after 14-day co-culture) was 0%. The “Percentage of donors demonstrating IL-2 responses, DR9” value ([1]; DR9 donors N=4, ICCS) was 25%, the “Percentage of donors demonstrating IL-4 responses, DR9” value ([1]; DR9 donors N=4, ICCS) was 25% and the “Percentage of donors demonstrating IL-10 responses, DR9” value ([1]; DR9 donors N=4, ICCS) was 0%. The “Percentage of donors demonstrating TNF-α responses, DR9” value ([1]; DR9 donors N=4, ICCS) was 25%, the “Percentage of donors demonstrating IFN-γ responses, DR11” value ([1]; DR11 donors N=4, ICCS after 14-day co-culture) was 50% and the “Percentage of donors demonstrating IL-2 responses, DR11” value ([1]; DR11 donors N=4, ICCS) was 25%. The “Percentage of donors demonstrating IL-4 responses, DR11” value ([1]; DR11 donors N=4, ICCS) was 0%, the “Percentage of donors demonstrating IL-10 responses, DR11” value ([1]; DR11 donors N=4, ICCS) was 0% and the “Percentage of donors demonstrating TNF-α responses, DR11” value ([1]; DR11 donors N=4, ICCS) was 25%. The “Percentage of donors demonstrating IFN-γ responses, DR13” value ([1]; DR13 donors N=7, ICCS after 14-day co-culture) was 29%, the “Percentage of donors demonstrating IL-2 responses, DR13” value ([1]; DR13 donors N=7, ICCS) was 43% and the “Percentage of donors demonstrating IL-4 responses, DR13” value ([1]; DR13 donors N=7, ICCS) was 14%. For the same compound, the “Percentage of donors demonstrating IL-10 responses, DR13” value ([1]; DR13 donors N=7, ICCS) was 0%, the “Percentage of donors demonstrating TNF-α responses, DR13” value ([1]; DR13 donors N=7, ICCS) was 43% and the “Percentage of donors demonstrating IFN-γ responses, DR15” value ([1]; DR15 donors N=7, ICCS after 14-day co-culture) was 0%. For the same compound, the “Percentage of donors demonstrating IL-2 responses, DR15” value ([1]; DR15 donors N=7, ICCS) was 0%, the “Percentage of donors demonstrating IL-4 responses, DR15” value ([1]; DR15 donors N=7, ICCS) was 29% and the “Percentage of donors demonstrating IL-10 responses, DR15” value ([1]; DR15 donors N=7, ICCS) was 0%. The “Percentage of donors demonstrating TNF-α responses, DR15” value ([1]; DR15 donors N=7, ICCS) was 14%.
In the case of `CC[C@H](C)[C@H](NC(=O)[C@H](CCCCN)NC(=O)[C@H](CCCCN)NC(=O)[C@H](CC(C)C)NC(=O)[C@@H](N)Cc1ccc(O)cc1)C(=O)N[C@@H](CCC(N)=O)C(=O)N[C@@H](CC(N)=O)C(=O)N[C@@H](CO)C(=O)N[C@@H](CC(C)C)C(=O)O` [Cluster 319_ICS2] (H-YLKKIQNSL-OH), the IC50 (HLA B*0702) is reported as 9.2 µM, the IC50 (HLA A*0201) is reported as 2.18 µM and the IC50 (HLA A*2402) is reported as 11.2 µM.
